Experimental data from patent US9617289B2, “RSV antiviral compounds” (JANSSEN R&D IRELAND, priority 2012, dated 2017).
Counter-ions that a name gives are not always drawn. Like-named read-outs stand apart in the source and are kept apart here.

Tests used:
[1] = system: rgRSV224 virus; assay: Antiviral activity: inhibition of rgRSV224 (GFP-expressing RSV) replication in HeLa cells; assay type: cell-based, respiratory syncytial virus; settings: for EC50: human respiratory syncytial virus, HeLa, 72 h
In short: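 HeLa cells infected with GFP-expressing rgRSV224 at MOI 0.02 alongside 4-fold compound dilutions in duplicate (0.5% DMSO). Incubated 3 days at 37 °C; EC50 taken as 50% inhibition of GFP expression by laser microscopy. CC50 measured in parallel uninfected cells by ATP content after 3 days; SI = CC50/EC50.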

[2] = read-out: pEC50, rgRSV224 (MOI=0.02) in HeLa cells, GFP expression three days post-virus exposure (converted)
[3] = read-out: RSV-wt_pEC50, rgRSV224 (MOI=0.02) in HeLa cells, GFP expression three days post-virus exposure

SMILES | melting point [°C] | EC50 [1, 2] [nM] | pEC50 ([1]; rgRSV224 (MOI=0.02) in HeLa cells, GFP expression three days post-virus exposure) | EC50 [1, 3] [nM]
N#CCCCn1c(CN2C(=O)C3(CCNCC3)c3ccncc32)cc2cc(Cl)ccc21 (as salt: hydrochloride) [Compound 78, 4-(5-chloro-2-((2′-oxospiro[piperidine-4,3′-pyrrolo[2,3-c]-pyridin]-1′(2′H)-yl)methyl)-1H-indol-1-yl)butanenitrile hydrochloride] | 82.02 | – | – | –
CS(=O)(=O)CCCn1c(CN2C(=O)C3(CN(CC(F)(F)F)C3)c3ccccc32)nc2cc(Cl)ccc21 [Compound 9, 1′-[[5-chloro-1-(3-methylsulfonylpropyl)benzimidazol-2-yl]methyl]-1-(2,2,2-trifluoroethyl)spiro[azetidine-3,3′-indoline]-2′-one] | 200.68 | 0.398 | – | –
CS(=O)(=O)CCCn1c(CN2C(=O)C3(CCOCC3)c3ccc(F)cc32)nc2cc(Cl)ccc21 [Compound 10, 1-((5-chloro-1-(3-(methylsulfonyl)propyl)-1H-benzo[d]-imidazol-2-yl)methyl)-6-fluoro-2′,3′,5′,6′-tetrahydro-spiro[indoline-3,4′-pyran]-2-one] | 207.14 | 2 | – | –
CS(=O)(=O)CCCn1c(CN2C(=O)C3(CC(O)C3)c3ccccc32)nc2cc(Cl)ccc21 [Compound 11, (3S)-1′-({5-chloro-1-[3-(methylsulfonyl)propyl]-1H-benzimidazol-2-yl}methyl)-3-hydroxyspiro[cyclobutane-1,3′-indol]-2′(1′H)-one] | 232.91 | 0.398 | – | –
CS(=O)(=O)CCCn1c(CN2C(=O)C3(CC(O)C3)c3ccccc32)nc2cc(Cl)ccc21 [Compound 12, (3R)-1′-({5-chloro-1-[3-(methylsulfonyl)propyl]-1H-benzimidazol-2-yl}methyl)-3-hydroxyspiro[cyclobutane-1,3′-indol]-2′(1′H)-one] | 209.84 | – | 9.3 | –
CC(C)C(=O)N1CC2(C1)C(=O)N(Cc1nc3cc(Cl)ccc3n1CCCS(C)(=O)=O)c1ccccc12 [Compound 28, 1′-({5-chloro-1-[3-(methylsulfonyl)propyl]-1H-benzimidazol-2-yl}methyl)-1-(2-methylpropanoyl)-spiro[azetidine-3,3′-indol]-2′(1′H)-one] | 133.12 | < 0.158 | – | –
CS(=O)(=O)CCCn1c(CN2C(=O)C3(CN(S(=O)(=O)C4CC4)C3)c3ccccc32)nc2cc(Cl)ccc21 [Compound 29, 1′-({5-chloro-1-[3-(methylsulfonyl)propyl]-1H-benzimidazol-2-yl}methyl)-1-(cyclopropylsulfonyl)-spiro[azetidine-3,3′-indol]-2′(1′H)-one] | 191.15 | < 0.158 | – | –
CC(=O)N1CC2(C1)C(=O)N(Cc1nc3cc(Cl)ccc3n1CCCS(C)(=O)=O)c1ccccc12 [Compound 30, 1-acetyl-1′-({5-chloro-1-[3-(methylsulfonyl)propyl]-1H-benzimidazol-2-yl}methyl)spiro[azetidine-3,3′-indol]-2′(1′H)-one] | 221.24 | 0.251 | – | –
CS(=O)(=O)CCCn1c(CN2C(=O)C3(CN(C(=O)C(F)(F)F)C3)c3ccccc32)nc2cc(Cl)ccc21 [Compound 31, 1-({5-chloro-1-[3-(methylsulfonyl)propyl]-1H-benzimidazol-2-yl}methyl)-1-(trifluoroacetyl)spiro-[azetidine-3,3′-indol]-2′(1′H)-one] | 249.58 | 3.16 | – | –
CC(=O)N1CCC2(CC1)C(=O)N(Cc1nc3cc(Cl)ccc3n1CCCS(C)(=O)=O)c1ccccc12 [Compound 32, 1′-acetyl-1-({5-chloro-1-[3-(methylsulfonyl)propyl]-1H-benzimidazol-2-yl}methyl)spiro[indole-3,4′-piperidin]-2(1H)-one] | 247.98 | 0.631 | – | –
CS(=O)(=O)CCCn1c(CN2C(=O)C3(CCN(S(=O)(=O)c4ccc(F)cc4)CC3)c3ccccc32)nc2cc(Cl)ccc21 [Compound 34, 1-({5-chloro-1-[3-(methylsulfonyl)propyl]-1H-benzimidazol-2-yl}methyl)-1′-[(4-fluorophenyl)-sulfonyl]spiro[indole-3,4′-piperidin]-2(1H)-one] | 183.97 | 1.26 | – | –
CS(=O)(=O)CCCn1c(CN2C(=O)C3(CCN(S(=O)(=O)C4CC4)CC3)c3ccccc32)nc2cc(Cl)ccc21 [Compound 35, 1-({5-chloro-1-[3-(methylsulfonyl)propyl]-1H-benzimidazol-2-yl}methyl)-1′-(cyclopropylsulfonyl)-spiro[indole-3,4′-piperidin]-2(1H)-one] | 194.85 | 0.794 | – | –
COc1ccc(S(=O)(=O)N2CCC3(CC2)C(=O)N(Cc2nc4cc(Cl)ccc4n2CCCS(C)(=O)=O)c2ccccc23)cc1 [Compound 36, 1-({5-chloro-1-[3-(methylsulfonyl)propyl]-1H-benzimidazol-2-yl}methyl)-1′-[(4-methoxyphenyl)-sulfonyl]spiro[indole-3,4′-piperidin]-2(1H)-one] | 237.33 | 0.251 | – | –
COC(=O)N1CCC2(CC1)C(=O)N(Cc1cc3cc(Cl)ccc3n1CCCS(C)(=O)=O)c1cnccc12 [Compound 55] | 234.28 | 0.0501 | – | –
CC(=O)N1CCC2(CC1)C(=O)N(Cc1cc3cc(Cl)ccc3n1CCCS(C)(=O)=O)c1cnccc12 [Compound 56, 1-acetyl-1′-({5-chloro-1-[3-(methylsulfonyl)propyl]-1H-indol-2-yl}methyl)spiro[piperidine-4,3′-pyrrolo[2,3-c]pyridin]-2′(1′H)-one] | 258.32 | 0.316 | – | –
CC(=O)N1CC2(C1)C(=O)N(Cc1cc3cc(Cl)ccc3n1CCCC#N)c1ccccc12 [Compound 62, 4-{2-[(1-acetyl-2′-oxospiro[azetidine-3,3′-indol]-1′(2′H)-yl)-methyl]-5-chloro-1H-indol-l-yl}butanenitrile] | 195.25 | 1 | – | –
CC(C)(C)OC(=O)N1CC2(C1)C(=O)N(Cc1nc3cc(Cl)ccc3n1CCCC#N)c1ccccc12 [Compound 70, tert-butyl 1′-((5-chloro-1-(3-cyanopropyl)-1H-benzo[d]-imidazol-2-yl)methyl)-2′-oxospiro[azetidine-3,3′-indoline]-1-carboxylate] | 144.1 | < 0.158 | – | –
CC1CC2(CC(C)O1)C(=O)N(Cc1nc3cc(Cl)ccc3n1CCCS(C)(=O)=O)c1cnccc12 (stereo not drawn) [Compound 174, 1′-({5-Chloro-1-[3-(methylsulfonyl)propyl]-1H-benzimidazol-2-yl}methyl)-2,6-dimethyl-2,3,5,6-tetrahydrospiro[pyran-4,3′-pyrrolo[2,3-c]pyridin]-2′(1′H)-one] | – | – | – | 17.8
CC(C)(O)C(=O)N1CC2(C1)C(=O)N(Cc1nc3cc(Cl)ccc3n1CCCCO)c1ccccc12 [Compound 175, 1′-{[5-Chloro-1-(4-hydroxybutyl)-1H-benzimidazol-2-yl]methyl}-1-(2-hydroxy-2-methylpropanoyl)spiro[azetidine-3,3′-indol]-2′(1′H)-one] | – | – | – | 0.0741
O=C(NS(=O)(=O)N1CCC2(CC1)C(=O)N(Cc1cc3cc(Cl)ccc3n1CCCCF)c1cnccc12)C1CC1 [Compound 184, N-[(1′-{[5-Chloro-1-(4-fluorobutyl)-1H-indol-2-yl]methyl}-2′-oxo-1′,2′-dihydro-1H-spiro[piperidine-4,3′-pyrrolo[2,3-c]pyridin]-1-yl)sulfonyl]cyclopropanecarboxamide] | – | – | – | 0.219
